Measurements taken from patent publication US20070281857A1, “FORMIC ACID AS AN HERBICIDE” (MARRONE ORGANIC INNOVATIONS, priority 2006, published 2007).
Read-outs that look alike come from different tables or passages of the source.

Columns and labels:
dicots (radishes) = conditions: solution in water at 0.5% and 0.1%
Excerpt: (§1) Numerous natural compounds were screened for their ability to inhibit the germination of seeds. A single seed was placed in each well of a 96-well plate followed by a solution of each compound in water at both 0.5% and 0.1%. Germination was monitored at varying intervals, depending on the germination time in the control groups for the particular seed being used in the study.

monocots (wheat) = conditions: solution in water at 0.5% and 0.1%
Excerpt: as §1

[1] = test system: dicotyledonous radish plants (Raphanus sativas); conditions: foliar spray at all concentrations (1%, 3%, 5%); one day post-treatment
Excerpt: (§2) In order to determine whether formic acid could be used as a foliar herbicide it was applied as a foliar spray to the leaves of dicotyledonous radish plants (Raphanus sativas) and monocotyledonous wheat plants (Triticum aestivum). Solutions were applied to plants using a small handheld sprayer.
(§3) Formic acid and acetic acid solutions at three concentrations (1%, 3%, 5%) were applied and water was used as a check. A barrier was inserted between the rows of plants on either side of the row being treated to avoid drift of sprays into neighboring rows. Plants were evaluated at 24-hour and 72-hour intervals for the number of surviving plants and a percentage was derived from this number in comparison with the number of plants originally present in the row.

[2] = test system: monocotyledonous wheat plants (Triticum aestivum); conditions: one day post-treatment
Excerpt: as §2, §3

[3] = test system: Poa annua (annual bluegrass); conditions: one week, relative to control
Method: (§4) To further test the inhibitory effect of formic acid on germinating seeds, pots with 6-cm diameter were filled with 60 mL of silty clay loam soil passed through a 2-mm sieve, and five (5) seeds of either Taraxacum officinale (dandelion, representing a broadleaved weed) or Poa annua (annual bluegrass, representing a grass weed) were planted on the top. A solid form of the composition containing corn gluten meal granules (1-2 mm diameter) soaked in 0%, 5%, 10% or 20% formic acid solution and dried were placed on the top of the soil at rates 0.1, 0.25, 0.5 and 1.0 g/pot. The pots were kept at optimum water content under growth lights with a 12-h light/dark period at room temperature, and the number of germinated seeds was counted after one week.

[4] = test system: Taraxacum officinale (dandelion); conditions: one week, relative to control
Method: as §4

[5] = test system: radish (Raphanus sativus); conditions: spray, 1, 3 and 5% in water with 0.04% Tween 20
Method: (§5) The herbicidal effect of formic acid was compared with that of acetic acid in a greenhouse study using radish (Raphanus sativus) and wheat (Triticum aestivum) as test plants. Both formic acid and acetic acid were diluted in water at 1, 3, and 5%, and deionized water was used as a control. Tween 20 was added to each of the solutions at a rate 0.04% for use as a surfactant. Solutions were applied to plants using a small handheld sprayer. Plants were evaluated at 24- and 72-hours after treatment for the % control.

[6] = test system: wheat (Triticum aestivum); conditions: 5%, spray
Method: as §5

[7] = test system: Poa annua (annual bluegrass); conditions: for germination rate (%) annual bluegrass: one week, compared with control
Method: as §4, with “Pots” for “To further test the inhibitory effect of formic acid on germinating seeds, pots”, “3-cm” for “6-cm”, “silt” for “silty”, “(>2” for “(1-2”, “10%, 15%” for “5%, 10%”

[8] = test system: Taraxacum officinale (dandelion); conditions: for germination rate (%) dandelion: one week, compared with control
Method: as §4, with “Pots” for “To further test the inhibitory effect of formic acid on germinating seeds, pots”, “3-cm” for “6-cm”, “silt” for “silty”, “(>2” for “(1-2”, “10%, 15%” for “5%, 10%”

[9] = test system: Seedlings of Lactuca sativa (lettuce)
Method: A high-throughput 96-well assay was used to test the efficacy of formic acid as a post-emergence, non-selective herbicide. Seedlings of Lactuca sativa (lettuce) were grown in 96-well plates under continuous light. Formic acid was added on the seedlings at a 5x-dilution series from 20% to 0%, and the minimum concentration needed for killing the seedling was recorded the next day.

[10] = 5% formic acid in corn gluten meal granules 1-2 mm, 0.1 g/pot
[11] = 5% formic acid in corn gluten meal granules 1-2 mm, 0.25 g/pot
[12] = 5% formic acid in corn gluten meal granules 1-2 mm, 0.5 g/pot
[13] = 5% formic acid in corn gluten meal granules 1-2 mm, 1 g/pot
[14] = 10% formic acid in corn gluten meal granules 1-2 mm, 0.1 g/pot
[15] = 10% formic acid in corn gluten meal granules 1-2 mm, 0.25 g/pot
[16] = 10% formic acid in corn gluten meal granules 1-2 mm, 0.5 g/pot
[17] = 10% formic acid in corn gluten meal granules 1-2 mm, 1 g/pot
[18] = 20% formic acid in corn gluten meal granules 1-2 mm, 0.1 g/pot
[19] = 20% formic acid in corn gluten meal granules 1-2 mm, 0.25 g/pot
[20] = 20% formic acid in corn gluten meal granules 1-2 mm, 0.5 g/pot
[21] = 20% formic acid in corn gluten meal granules 1-2 mm, 1 g/pot
[22] = 20% formic acid in corn gluten meal granules 1-2 mm, 1 g/pot, listed as formic acid
[23] = 10% formic acid in corn gluten meal granules >2 mm, 0.1 g/pot
[24] = 10% formic acid in corn gluten meal granules >2 mm, 0.25 g/pot
[25] = 10% formic acid in corn gluten meal granules >2 mm, 0.5 g/pot
[26] = 10% formic acid in corn gluten meal granules >2 mm, 1 g/pot
[27] = 15% formic acid in corn gluten meal granules >2 mm, 0.1 g/pot
[28] = 15% formic acid in corn gluten meal granules >2 mm, 0.25 g/pot
[29] = 15% formic acid in corn gluten meal granules >2 mm, 0.5 g/pot
[30] = 15% formic acid in corn gluten meal granules >2 mm, 1 g/pot
[31] = 20% formic acid in corn gluten meal granules >2 mm, 0.1 g/pot
[32] = 20% formic acid in corn gluten meal granules >2 mm, 0.25 g/pot
[33] = 20% formic acid in corn gluten meal granules >2 mm, 0.5 g/pot
[34] = 20% formic acid in corn gluten meal granules >2 mm, 1 g/pot
[35] = bigger granules (>2 mm) imbedded in 15% formic acid

O=CO [Formic acid]
ability to inhibit germination of seeds (dicots (radishes)): inhibit germination of seeds | ability to inhibit germination of seeds (monocots (wheat)): inhibit germination of seeds | killing of foliage of radish plants [1]: completely killed all the foliage | wheat foliage killed ([2]; foliar spray 1%): none of the foliage killed | wheat plants killed ([2]; foliar spray 5%): 10% | germination rate (%) annual bluegrass [3, 10]: 100% | germination rate (%) annual bluegrass [3, 11]: 82% | germination rate (%) annual bluegrass [3, 12]: 82% | germination rate (%) annual bluegrass [3, 13]: 82% | germination rate (%) annual bluegrass [3, 14]: 100% | germination rate (%) annual bluegrass [3, 15]: 100% | germination rate (%) annual bluegrass [3, 16]: 54% | germination rate (%) annual bluegrass [3, 17]: 54% | germination rate (%) annual bluegrass [3, 18]: 100% | germination rate (%) annual bluegrass [3, 19]: 54% | germination rate (%) annual bluegrass [3, 20]: 27% | germination rate (%) annual bluegrass [3, 21]: 0% | germination rate (%) annual bluegrass [3, 22]: inhibited the germination | germination rate (%) dandelion [4, 10]: 100% | germination rate (%) dandelion [4, 11]: 50% | germination rate (%) dandelion [4, 12]: 0% | germination rate (%) dandelion [4, 13]: 0% | germination rate (%) dandelion [4, 14]: 0% | germination rate (%) dandelion [4, 15]: 0% | germination rate (%) dandelion [4, 16]: 0% | germination rate (%) dandelion [4, 17]: 100% | germination rate (%) dandelion [4, 18]: 0% | germination rate (%) dandelion [4, 19]: 0% | germination rate (%) dandelion [4, 20]: 0% | germination rate (%) dandelion [4, 21]: 0% | germination rate (%) dandelion [4, 22]: inhibited the germination | % control of radish plants ([5]; 24-h): 100% | % control of radish plants ([5]; 72-h): 100% | % control of wheat seedlings ([6]; 24-h): 1% | % control of wheat seedlings ([6]; 72-h): 4% | germination rate (%) annual bluegrass [7, 23]: 100% | germination rate (%) annual bluegrass [7, 24]: 100% | germination rate (%) annual bluegrass [7, 25]: 30% | germination rate (%) annual bluegrass [7, 26]: 100% | germination rate (%) annual bluegrass [7, 27]: 0% | germination rate (%) annual bluegrass [7, 28]: 0% | germination rate (%) annual bluegrass [7, 29]: 0% | germination rate (%) annual bluegrass [7, 30]: 100% | germination rate (%) annual bluegrass [7, 31]: 100% | germination rate (%) annual bluegrass [7, 32]: 100% | germination rate (%) annual bluegrass [7, 33]: 100% | germination rate (%) annual bluegrass [7, 34]: 100% | control of the grass seed germination [7, 35]: not effective | germination rate (%) dandelion [8, 23]: 60% | germination rate (%) dandelion [8, 24]: 30% | germination rate (%) dandelion [8, 25]: 30% | germination rate (%) dandelion [8, 26]: 0% | germination rate (%) dandelion [8, 27]: 30% | germination rate (%) dandelion [8, 28]: 30% | germination rate (%) dandelion [8, 29]: 30% | germination rate (%) dandelion [8, 30]: 0% | germination rate (%) dandelion [8, 31]: 0% | germination rate (%) dandelion [8, 32]: 0% | germination rate (%) dandelion [8, 33]: 0% | germination rate (%) dandelion [8, 34]: 0% | control of a broadleaved weed [8, 35]: complete control | minimum concentration needed for killing the seedling ([9]; 5x-dilution series from 20% to 0%, recorded the next day): 0.8% | effect on lettuce seedling ([9]; formic acid 0.16%, next day): not harmful for the plant
